Measured values taken from PubChem BioAssay AID330 (DTP/NCI, 2004).
Values joined by “and” are separate entries in the source; they are usually repeats but may differ in a detail not shown here. Equal entries are not always repeated. Toxic doses and inconclusive results are not listed.

Test system: P388 leukemia ip, CD2F1 mice, survival T/C
Experiment: NCI In Vivo Anticancer Drug Screen. Data for tumor model P388 Leukemia (intraperitoneal) in CD2F1 (CDF1) mice
Settings: endpoint: median survival time, higher = longer survival
Summary of the method: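 Mice carrying the transplanted tumor received test compound or vehicle. Survival was recorded in each group, and the value is the treated-group measurement divided by that of the vehicle-treated control group.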

[1] = dose: 100.0 mg/kg/injection, schedule: Q01DX001 (ip), vehicle: Klucel (hydroxypropylcellulose) (HPC)
[2] = dose: 200.0 mg/kg/injection, schedule: Q01DX001 (ip), vehicle: Klucel (hydroxypropylcellulose) (HPC)
[3] = dose: 400.0 mg/kg/injection, schedule: Q01DX001 (ip), vehicle: Klucel (hydroxypropylcellulose) (HPC)
[4] = dose: 60.0 mg/kg/injection, schedule: Q01DX005 (ip), vehicle: saline with Tween-80
[5] = dose: 120.0 mg/kg/injection, schedule: Q01DX005 (ip), vehicle: saline with Tween-80
[6] = dose: 240.0 mg/kg/injection, schedule: Q01DX005 (ip), vehicle: saline with Tween-80
[7] = dose: 50.0 mg/kg/injection, schedule: Q01DX005 (ip), vehicle: saline with Tween-80
[8] = dose: 100.0 mg/kg/injection, schedule: Q01DX005 (ip), vehicle: saline with Tween-80
[9] = dose: 200.0 mg/kg/injection, schedule: Q01DX005 (ip), vehicle: saline with Tween-80

Structure (SMILES): O=c1[nH]cc(-c2ccccc2)c(=O)[nH]1
- T/C [1]: 100 % of control
- T/C [2]: 98 % of control
- T/C [3]: 96 % of control

Structure (SMILES): O=C(CCCl)OCCCl
- T/C (dose: 50.0 mg/kg/injection, schedule: Q01DX009 (ip), vehicle: saline sonified): 95 % of control
- T/C (dose: 100.0 mg/kg/injection, schedule: Q01DX009 (ip), vehicle: saline sonified): 100 % of control
- T/C (dose: 200.0 mg/kg/injection, schedule: Q01DX009 (ip), vehicle: saline sonified): 90 % of control

Structure (SMILES): CCCCCCCCCC(=O)Oc1c2ccoc2cc2oc(=O)ccc12
- T/C [1]: 98 % of control
- T/C [2]: 91 % of control
- T/C [3]: 103 % of control

Structure (SMILES): Nc1nnc(-c2ccccc2S)o1
- T/C [4]: 103 % of control
- T/C [5]: 108 % of control
- T/C [6]: 110 % of control

Structure (SMILES): NC(N)=N/N=C/C=N/N=C(N)N
- T/C (dose: 6.25 mg/kg/injection, schedule: Q01DX009 (ip), vehicle: saline): 118 % of control
- T/C (dose: 6.25 mg/kg/injection, schedule: Q04DX003 (ip), vehicle: saline): 100 % of control
- T/C (dose: 12.5 mg/kg/injection, schedule: Q01DX009 (ip), vehicle: saline): 100 % of control
- T/C (dose: 25.0 mg/kg/injection, schedule: Q01DX009 (ip), vehicle: saline): 95 % of control and 100 % of control
- T/C (dose: 25.0 mg/kg/injection, schedule: Q04DX003 (ip), vehicle: saline): 90 % of control and 100 % of control
- T/C (dose: 50.0 mg/kg/injection, schedule: Q01DX009 (ip), vehicle: saline): 86 % of control and 100 % of control
- T/C (dose: 50.0 mg/kg/injection, schedule: Q04DX003 (ip), vehicle: saline): 100 % of control
- T/C (dose: 100.0 mg/kg/injection, schedule: Q01DX009 (ip), vehicle: saline): 86 % of control
- T/C (dose: 100.0 mg/kg/injection, schedule: Q04DX003 (ip), vehicle: saline): 95 % of control and 100 % of control

Structure (SMILES): Nc1ncnc2c1c1c(=O)[nH]cnc1n2C1OC(CO)C(O)C1O (stereo unspecified)
- T/C (dose: 3.13 mg/kg/injection, schedule: Q01DX009 (ip), vehicle: water): 107 % of control
- T/C (dose: 6.25 mg/kg/injection, schedule: Q01DX009 (ip), vehicle: water): 113 % of control
- T/C (dose: 12.5 mg/kg/injection, schedule: Q01DX009 (ip), vehicle: water): 114 % of control
- T/C (dose: 50.0 mg/kg/injection, schedule: Q01DX009 (ip), vehicle: water): 116 % of control

Structure (SMILES): c1ccc(CNc2nnc3nc(-c4ccccc4)c(-c4ccccc4)nn23)cc1
- T/C [7]: 117 % of control
- T/C [8]: 114 % of control
- T/C [9]: 105 % of control

Structure (SMILES): COc1ccc2[nH]c(C(=O)N(C)C)cc2c1
- T/C [7]: 100 % of control
- T/C [8]: 104 % of control
- T/C [9]: 101 % of control

Structure (SMILES): CCOC(=O)N(C)N=NCCCl
- T/C (dose: 7.5 mg/kg/injection, schedule: Q01DX005 (ip), vehicle: saline with Tween-80): 117 % of control
- T/C (dose: 15.0 mg/kg/injection, schedule: Q01DX005 (ip), vehicle: saline with Tween-80): 118 % of control
- T/C (dose: 30.0 mg/kg/injection, schedule: Q01DX005 (ip), vehicle: saline with Tween-80): 175 % of control
- T/C [4]: 94 % of control

Structure (SMILES): CCOC(=O)C1=NN(c2ccccc2)C(C)(C(=O)OC)C1 (stereo unspecified)
- T/C [4]: 98 % of control
- T/C [5]: 98 % of control
- T/C [6]: 95 % of control

Structure (SMILES): CC(/C=C/c1ccccc1)=N\NC(=S)Nc1ccc(Cl)cc1
- T/C (dose: 100.0 mg/kg/injection, schedule: Q04DX002 (ip), vehicle: Klucel (hydroxypropylcellulose) (HPC)): 108 % of control
- T/C (dose: 200.0 mg/kg/injection, schedule: Q04DX002 (ip), vehicle: Klucel (hydroxypropylcellulose) (HPC)): 107 % of control
- T/C (dose: 400.0 mg/kg/injection, schedule: Q04DX002 (ip), vehicle: Klucel (hydroxypropylcellulose) (HPC)): 108 % of control

Structure (SMILES): CN(CCN1C(=O)c2c(Cl)c(Cl)c(Cl)c(Cl)c2C1=O)c1ccccc1
- T/C (dose: 50.0 mg/kg/injection, schedule: Q01DX001 (ip), vehicle: saline with Tween-80): 95 % of control
- T/C (dose: 100.0 mg/kg/injection, schedule: Q01DX001 (ip), vehicle: saline with Tween-80): 91 % of control
- T/C (dose: 200.0 mg/kg/injection, schedule: Q01DX001 (ip), vehicle: saline with Tween-80): 88 % of control

Structure (SMILES): CN(C)CCCNc1c2c(nc3ccc(Cl)cc13)CCCC2
- T/C [7]: 104 % of control
- T/C [8]: 106 % of control
